From ChEMBL document CHEMBL5678818, “Discovery of potent SOS1 inhibitors that block RAS activation via disruption of the RAS-SOS1 interaction” (Proc Natl Acad Sci U S A, 2019)

Assays:
[1] = target: Activin receptor type-2B (Homo sapiens) (UniProt Q13705); experiment: Inhibition of ACVR2B (unknown origin) assessed as residual activity at 100 nM by KINOMEscan analysis relative to control
[2] = target: Serine/threonine-protein kinase SIK2 (Homo sapiens) (UniProt Q9H0K1); experiment: Inhibition of SIK2 (unknown origin) assessed as residual activity at 100 nM by KINOMEscan analysis relative to control
[3] = target: T1, Mitogen-activated protein kinase kinase kinase 19 (Homo sapiens) (UniProt Q56UN5); experiment: Inhibition of YSK4 (unknown origin) assessed as residual activity at 100 nM by KINOMEscan analysis relative to control
T1 sequence (whole entry): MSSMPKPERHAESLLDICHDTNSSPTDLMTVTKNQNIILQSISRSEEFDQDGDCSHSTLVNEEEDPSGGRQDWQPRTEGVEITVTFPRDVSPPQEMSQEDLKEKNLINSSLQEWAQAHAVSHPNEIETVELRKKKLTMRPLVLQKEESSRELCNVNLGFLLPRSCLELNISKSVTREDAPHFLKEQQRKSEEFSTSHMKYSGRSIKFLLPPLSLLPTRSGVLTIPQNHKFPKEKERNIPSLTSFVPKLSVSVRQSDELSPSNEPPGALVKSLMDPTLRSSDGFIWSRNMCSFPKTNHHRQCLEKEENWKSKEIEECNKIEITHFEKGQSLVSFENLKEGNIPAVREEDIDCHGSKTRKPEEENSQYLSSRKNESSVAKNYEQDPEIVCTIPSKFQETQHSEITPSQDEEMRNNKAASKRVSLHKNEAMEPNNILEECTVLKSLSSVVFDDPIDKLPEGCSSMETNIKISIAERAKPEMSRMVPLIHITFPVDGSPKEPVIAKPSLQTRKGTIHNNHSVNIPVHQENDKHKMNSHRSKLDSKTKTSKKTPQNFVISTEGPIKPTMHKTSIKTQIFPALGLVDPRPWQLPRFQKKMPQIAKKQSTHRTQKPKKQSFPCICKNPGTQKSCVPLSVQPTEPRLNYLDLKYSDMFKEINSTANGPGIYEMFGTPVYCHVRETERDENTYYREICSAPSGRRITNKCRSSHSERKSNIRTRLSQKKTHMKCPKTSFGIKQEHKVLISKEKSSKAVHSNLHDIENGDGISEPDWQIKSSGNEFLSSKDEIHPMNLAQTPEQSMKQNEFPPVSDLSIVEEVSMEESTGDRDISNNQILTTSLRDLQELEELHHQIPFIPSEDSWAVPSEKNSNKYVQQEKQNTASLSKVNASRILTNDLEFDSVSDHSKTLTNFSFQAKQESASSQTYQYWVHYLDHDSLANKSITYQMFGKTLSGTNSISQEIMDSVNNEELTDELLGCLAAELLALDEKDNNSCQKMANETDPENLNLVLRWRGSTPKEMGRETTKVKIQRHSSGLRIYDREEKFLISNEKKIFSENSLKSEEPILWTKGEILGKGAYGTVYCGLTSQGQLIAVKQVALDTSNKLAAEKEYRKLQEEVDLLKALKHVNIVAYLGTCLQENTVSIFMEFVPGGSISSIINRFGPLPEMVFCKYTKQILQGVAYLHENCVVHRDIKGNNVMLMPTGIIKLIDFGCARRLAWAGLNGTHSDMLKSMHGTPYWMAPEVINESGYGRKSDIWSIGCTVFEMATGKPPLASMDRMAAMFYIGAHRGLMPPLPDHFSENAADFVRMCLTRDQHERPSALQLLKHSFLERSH

[4] = target: Tyrosine-protein kinase Fyn (Homo sapiens) (UniProt P06241); experiment: Inhibition of FYN (unknown origin) assessed as residual activity at 100 nM by KINOMEscan analysis relative to control
[5] = system: ALK tyrosine kinase receptor (Homo sapiens), Q9UM73 [C1156Y]; experiment: Inhibition of ALK C1156Y mutant (unknown origin) assessed as residual activity at 100 nM by KINOMEscan analysis relative to control
[6] = target: T2, Ephrin type-B receptor 2 (Homo sapiens) (UniProt P29323); experiment: Inhibition of EPHB2 (unknown origin) assessed as residual activity at 100 nM by KINOMEscan analysis relative to control
T2 sequence (whole entry): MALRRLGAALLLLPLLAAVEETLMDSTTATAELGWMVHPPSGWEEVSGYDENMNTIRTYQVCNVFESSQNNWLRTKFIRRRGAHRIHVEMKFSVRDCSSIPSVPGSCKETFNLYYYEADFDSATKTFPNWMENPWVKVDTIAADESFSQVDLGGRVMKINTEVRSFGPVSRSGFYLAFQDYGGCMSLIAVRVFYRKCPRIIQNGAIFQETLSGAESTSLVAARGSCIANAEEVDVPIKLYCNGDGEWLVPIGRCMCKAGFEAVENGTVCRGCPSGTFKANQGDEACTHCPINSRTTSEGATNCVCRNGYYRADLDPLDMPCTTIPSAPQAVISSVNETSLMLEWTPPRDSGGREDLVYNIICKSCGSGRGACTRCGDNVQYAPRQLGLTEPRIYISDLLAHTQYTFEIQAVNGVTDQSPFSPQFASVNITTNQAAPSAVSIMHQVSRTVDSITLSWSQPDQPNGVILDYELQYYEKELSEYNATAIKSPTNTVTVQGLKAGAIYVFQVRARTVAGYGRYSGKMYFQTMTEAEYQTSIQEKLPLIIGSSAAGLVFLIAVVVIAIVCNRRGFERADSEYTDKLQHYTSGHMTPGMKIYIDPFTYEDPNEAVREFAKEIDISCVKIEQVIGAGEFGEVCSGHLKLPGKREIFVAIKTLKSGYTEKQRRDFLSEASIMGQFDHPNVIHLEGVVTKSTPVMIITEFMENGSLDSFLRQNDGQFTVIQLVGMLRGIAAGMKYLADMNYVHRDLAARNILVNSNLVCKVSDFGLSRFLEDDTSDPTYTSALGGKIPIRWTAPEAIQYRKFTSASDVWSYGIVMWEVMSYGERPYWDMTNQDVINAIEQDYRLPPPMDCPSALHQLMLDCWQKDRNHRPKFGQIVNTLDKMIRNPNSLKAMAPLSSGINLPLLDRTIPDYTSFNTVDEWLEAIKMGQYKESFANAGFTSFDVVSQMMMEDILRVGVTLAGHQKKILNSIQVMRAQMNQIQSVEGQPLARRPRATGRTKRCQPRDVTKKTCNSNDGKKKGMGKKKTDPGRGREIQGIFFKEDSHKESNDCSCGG

[7] = target: Mitogen-activated protein kinase kinase kinase 1 (Homo sapiens) (UniProt Q13233); experiment: Inhibition of MAP3K1 (unknown origin) assessed as residual activity at 100 nM by KINOMEscan analysis relative to control
[8] = system: Tyrosine-protein kinase ABL1 (Homo sapiens), P00519 [F317L]; experiment: Inhibition of nonphosphorylated ABL1 F317L mutant (unknown origin) assessed as residual activity at 100 nM by KINOMEscan analysis relative to control
[9] = target: Serine/threonine-protein kinase WNK2 (Homo sapiens) (UniProt Q9Y3S1); experiment: Inhibition of WNK2 (unknown origin) assessed as residual activity at 1000 nM by KINOMEscan analysis relative to control

Chain of ALK tyrosine kinase receptor (Homo sapiens), Q9UM73 [C1156Y] (Q9UM73 whole entry C1156Y, looked up): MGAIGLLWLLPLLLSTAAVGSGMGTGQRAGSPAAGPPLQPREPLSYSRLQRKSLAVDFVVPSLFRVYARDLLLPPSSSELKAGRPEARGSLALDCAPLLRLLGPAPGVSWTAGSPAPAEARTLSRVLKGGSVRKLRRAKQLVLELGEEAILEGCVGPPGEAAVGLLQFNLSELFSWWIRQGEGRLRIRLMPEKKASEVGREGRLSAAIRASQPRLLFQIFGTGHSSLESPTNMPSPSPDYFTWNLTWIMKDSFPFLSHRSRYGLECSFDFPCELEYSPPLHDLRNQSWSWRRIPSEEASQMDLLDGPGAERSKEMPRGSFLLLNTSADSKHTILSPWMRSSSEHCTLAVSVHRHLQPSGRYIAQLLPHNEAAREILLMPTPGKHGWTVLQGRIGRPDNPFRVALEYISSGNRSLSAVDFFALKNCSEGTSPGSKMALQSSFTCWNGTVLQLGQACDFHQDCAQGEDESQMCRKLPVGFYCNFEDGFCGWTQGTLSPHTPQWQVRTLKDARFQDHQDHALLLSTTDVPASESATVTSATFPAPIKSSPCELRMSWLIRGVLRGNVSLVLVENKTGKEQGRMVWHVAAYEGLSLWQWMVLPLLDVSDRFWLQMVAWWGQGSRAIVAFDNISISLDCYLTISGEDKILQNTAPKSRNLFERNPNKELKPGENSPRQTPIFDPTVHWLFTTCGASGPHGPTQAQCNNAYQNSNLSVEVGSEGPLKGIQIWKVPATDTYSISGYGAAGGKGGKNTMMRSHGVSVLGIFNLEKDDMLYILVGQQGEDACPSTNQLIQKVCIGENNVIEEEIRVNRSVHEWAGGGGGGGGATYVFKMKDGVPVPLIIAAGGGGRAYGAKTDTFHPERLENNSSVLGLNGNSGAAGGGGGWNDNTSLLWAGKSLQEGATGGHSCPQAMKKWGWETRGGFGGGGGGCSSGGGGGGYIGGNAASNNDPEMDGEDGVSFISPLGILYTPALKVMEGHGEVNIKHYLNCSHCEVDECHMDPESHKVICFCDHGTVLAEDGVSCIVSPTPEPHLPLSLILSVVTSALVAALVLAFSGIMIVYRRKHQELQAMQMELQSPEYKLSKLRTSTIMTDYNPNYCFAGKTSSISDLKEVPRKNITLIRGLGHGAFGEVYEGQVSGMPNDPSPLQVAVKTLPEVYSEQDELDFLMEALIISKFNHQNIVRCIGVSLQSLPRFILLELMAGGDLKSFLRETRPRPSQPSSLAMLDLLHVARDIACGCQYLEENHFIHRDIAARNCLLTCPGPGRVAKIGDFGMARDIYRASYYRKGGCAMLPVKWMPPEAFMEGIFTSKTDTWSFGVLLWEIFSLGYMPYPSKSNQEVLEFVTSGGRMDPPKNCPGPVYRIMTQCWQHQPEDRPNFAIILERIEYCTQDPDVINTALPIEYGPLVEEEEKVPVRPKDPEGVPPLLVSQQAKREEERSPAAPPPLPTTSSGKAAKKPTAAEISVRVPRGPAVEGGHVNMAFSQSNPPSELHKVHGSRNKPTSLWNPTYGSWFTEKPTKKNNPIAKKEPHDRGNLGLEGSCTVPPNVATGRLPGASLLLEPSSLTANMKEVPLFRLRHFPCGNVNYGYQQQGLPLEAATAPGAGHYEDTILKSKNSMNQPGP
Chain of Tyrosine-protein kinase Fyn (Homo sapiens) (P06241 2-537 limits assumed): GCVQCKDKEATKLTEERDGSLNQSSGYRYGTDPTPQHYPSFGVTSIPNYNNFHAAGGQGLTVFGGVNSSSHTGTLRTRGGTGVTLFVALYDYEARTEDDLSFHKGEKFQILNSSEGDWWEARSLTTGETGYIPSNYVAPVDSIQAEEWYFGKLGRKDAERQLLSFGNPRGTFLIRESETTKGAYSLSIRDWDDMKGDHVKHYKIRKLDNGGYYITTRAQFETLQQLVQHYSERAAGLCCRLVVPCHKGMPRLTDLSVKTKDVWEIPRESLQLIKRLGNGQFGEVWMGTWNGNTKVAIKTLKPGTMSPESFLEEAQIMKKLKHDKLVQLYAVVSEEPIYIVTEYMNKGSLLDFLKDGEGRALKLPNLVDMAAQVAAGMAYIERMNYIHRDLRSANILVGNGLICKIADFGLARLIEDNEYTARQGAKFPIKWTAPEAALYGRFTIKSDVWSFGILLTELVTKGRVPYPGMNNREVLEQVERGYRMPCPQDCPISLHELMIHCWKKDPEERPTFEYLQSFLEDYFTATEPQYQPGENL
Chain of Serine/threonine-protein kinase SIK2 (Homo sapiens) (Q9H0K1 whole entry, looked up): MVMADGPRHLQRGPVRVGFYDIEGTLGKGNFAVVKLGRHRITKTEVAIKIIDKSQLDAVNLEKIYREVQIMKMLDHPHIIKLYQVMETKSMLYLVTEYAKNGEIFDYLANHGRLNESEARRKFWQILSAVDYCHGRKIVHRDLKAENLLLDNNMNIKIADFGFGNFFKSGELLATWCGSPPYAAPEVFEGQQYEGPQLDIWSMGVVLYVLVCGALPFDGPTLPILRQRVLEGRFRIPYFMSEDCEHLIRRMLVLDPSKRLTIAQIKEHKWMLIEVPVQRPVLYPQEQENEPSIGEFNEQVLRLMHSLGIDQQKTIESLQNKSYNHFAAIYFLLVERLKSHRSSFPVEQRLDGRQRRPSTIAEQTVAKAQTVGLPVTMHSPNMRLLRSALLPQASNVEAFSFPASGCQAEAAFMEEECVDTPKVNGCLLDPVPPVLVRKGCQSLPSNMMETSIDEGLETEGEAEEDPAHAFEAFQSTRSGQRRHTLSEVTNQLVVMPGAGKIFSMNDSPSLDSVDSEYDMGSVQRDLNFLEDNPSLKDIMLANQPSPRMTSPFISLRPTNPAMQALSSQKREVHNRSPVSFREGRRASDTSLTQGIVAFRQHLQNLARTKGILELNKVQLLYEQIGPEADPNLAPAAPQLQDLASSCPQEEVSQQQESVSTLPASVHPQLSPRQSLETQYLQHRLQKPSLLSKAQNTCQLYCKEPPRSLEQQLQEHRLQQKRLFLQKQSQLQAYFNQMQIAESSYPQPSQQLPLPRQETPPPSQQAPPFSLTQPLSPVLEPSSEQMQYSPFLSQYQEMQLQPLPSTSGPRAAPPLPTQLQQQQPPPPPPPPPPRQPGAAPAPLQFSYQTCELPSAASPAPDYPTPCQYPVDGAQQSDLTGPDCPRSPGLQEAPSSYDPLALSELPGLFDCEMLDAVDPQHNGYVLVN
Chain of Activin receptor type-2B (Homo sapiens) (Q13705 whole entry): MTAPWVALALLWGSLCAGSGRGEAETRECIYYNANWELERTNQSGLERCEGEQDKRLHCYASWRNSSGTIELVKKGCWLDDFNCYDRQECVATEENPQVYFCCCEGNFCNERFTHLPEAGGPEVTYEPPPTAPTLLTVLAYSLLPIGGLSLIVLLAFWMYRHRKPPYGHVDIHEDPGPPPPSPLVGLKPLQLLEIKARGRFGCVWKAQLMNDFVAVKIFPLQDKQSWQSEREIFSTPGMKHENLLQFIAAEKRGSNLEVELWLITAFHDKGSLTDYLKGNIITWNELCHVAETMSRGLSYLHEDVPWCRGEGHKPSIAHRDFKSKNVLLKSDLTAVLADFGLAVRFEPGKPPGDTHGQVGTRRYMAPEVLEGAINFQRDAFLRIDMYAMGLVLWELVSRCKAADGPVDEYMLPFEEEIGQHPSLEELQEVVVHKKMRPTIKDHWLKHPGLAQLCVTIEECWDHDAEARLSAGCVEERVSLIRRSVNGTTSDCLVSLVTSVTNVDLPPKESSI
Chain of Tyrosine-protein kinase ABL1 (Homo sapiens), P00519 [F317L] (P00519 whole entry F317L): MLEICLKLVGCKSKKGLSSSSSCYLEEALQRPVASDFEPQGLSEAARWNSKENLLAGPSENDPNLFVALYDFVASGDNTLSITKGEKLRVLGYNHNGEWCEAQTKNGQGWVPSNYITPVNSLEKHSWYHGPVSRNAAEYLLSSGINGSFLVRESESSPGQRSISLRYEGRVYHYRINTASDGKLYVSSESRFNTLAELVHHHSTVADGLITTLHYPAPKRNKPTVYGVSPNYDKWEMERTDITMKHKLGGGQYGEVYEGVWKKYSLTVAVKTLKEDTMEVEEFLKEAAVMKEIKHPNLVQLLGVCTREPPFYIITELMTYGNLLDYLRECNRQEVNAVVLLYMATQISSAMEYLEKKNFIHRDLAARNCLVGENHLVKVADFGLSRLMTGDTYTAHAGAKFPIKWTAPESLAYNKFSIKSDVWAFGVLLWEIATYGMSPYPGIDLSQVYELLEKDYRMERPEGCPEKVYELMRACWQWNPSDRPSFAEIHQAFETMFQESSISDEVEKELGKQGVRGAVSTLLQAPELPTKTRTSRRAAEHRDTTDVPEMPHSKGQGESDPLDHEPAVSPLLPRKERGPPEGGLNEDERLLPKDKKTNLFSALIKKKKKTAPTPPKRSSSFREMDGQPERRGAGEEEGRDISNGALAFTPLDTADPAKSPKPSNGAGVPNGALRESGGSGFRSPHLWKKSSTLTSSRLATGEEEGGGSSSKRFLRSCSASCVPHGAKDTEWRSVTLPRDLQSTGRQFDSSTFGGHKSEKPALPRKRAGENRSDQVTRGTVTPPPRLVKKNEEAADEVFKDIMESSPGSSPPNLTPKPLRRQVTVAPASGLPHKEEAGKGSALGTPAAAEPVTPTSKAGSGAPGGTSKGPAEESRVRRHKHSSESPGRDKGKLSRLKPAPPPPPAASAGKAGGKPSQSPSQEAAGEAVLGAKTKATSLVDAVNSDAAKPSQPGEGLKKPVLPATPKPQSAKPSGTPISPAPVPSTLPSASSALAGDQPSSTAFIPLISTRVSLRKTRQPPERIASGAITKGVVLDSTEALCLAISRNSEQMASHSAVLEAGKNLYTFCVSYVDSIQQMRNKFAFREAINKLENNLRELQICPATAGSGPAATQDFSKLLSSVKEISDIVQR

Structure (SMILES) | Activity [1] [%] | Activity [2] [%] | Activity [3] [%] | Activity [4] [%] | Activity [5] [%] | Activity [6] [%] | Activity [7] [%] | Activity [8] [%] | Activity [9] [%]
COc1cc2ncnc(N[C@H](C)c3cccc4ccccc34)c2cc1OC | 91 | 91 | 92 | 85 | 99 | 85 | 100 | 100 | –
COc1cc2nc(C)nc(N[C@H](C)c3cccc(-c4cn[nH]c4)c3)c2cc1OC | – | – | – | – | – | – | – | – | 100
